From patent publication US20250032425A1, “FIRST IN CLASS USE OF ESTROGEN RECEPTOR BETA AGONISTS IN TREATING ANGELMAN SYNDROME AND RELEVANT AUTISM SPECTRUM DISORDERS” (BROWN UNIVERSITY, priority 2023, published 2025)
“Also recorded” adds a separate entry of the source.

Assays:
[1] = tested on: iOPCs treated with siUBE3A; experiment: EdU nuclear incorporation in iOPCs treated with siUBE3A; assay type: cell-based, human; settings: siUBE3A plus AC-186 at 10 μM for 24 hours
Procedure: The siRNAs targeting UBE3A (Thermo Fisher, #4390815 and #4390816), estrogen receptors (Thermo Scientific #145909 for ESRβ, #145539 for ESRα, and #4390824 for GPER), and negative control (Thermo Scientific, #AM4615) were obtained commercially. The 10-20 nM final concentration was used with Lipofectamine RNAiMAX transfection reagent (Thermo Scientific #13778075) and incubated for at least 48 hours before the treatments of therapeutic compounds or other reagents.
The EdU labeling kit from ThermoFisher Scientific (#C10637) was used to trace cell proliferation by incubating iOPCs with 2 μM EdU for three hours before fixation. Following EdU incorporation, cells were fixed in 4% paraformaldehyde, blocked with normal serum, and stained with primary antibodies, Rabbit anti-Ki67 and Mouse anti-UBE3A. These steps were conducted according to the manual of the labeling kit and also detailed immunofluorescence staining protocols described below, to ensure specific detection of the proliferation marker Ki67 and the ubiquitin-protein ligase UBE3A in the cells for subsequent imaging analysis.
For immunofluorescence with fixed cells in vitro, cultured cells were fixed in 4% PFA for 15 min at 37° C. followed by 0.25% TritonX-100 in PBS for 10 min at RT. Cells were blocked with 2% normal goat/donkey serum in PBS for 1 hour at RT. […]

[2] = tested on: Angelman syndrome (AS) mice; experiment: Hindlimb Clasping test in AS mice; assay type: in vivo, mouse
Procedure: (§1) Animal handling and experimental use strictly followed NIH guidelines and protocols approved by the local Institutional Animal Care and Use Committee (IACUC) of Brown University. In all experiments, Mice were age and gender-matched. Multiple liters were used for all experiments. Weaned mice, housed in groups of two to four per cage, were maintained on a 12-h light/dark cycle with food and water ad libitum.
(§2) ESRβ agonist AC-186 treatment in vivo. 10 mg/kg AC-186 was daily IP delivered after dissolved at high concentration (30 mg/ml) in DMSO and further diluted in 20% PEG300. Vehicle groups received the same volume and concentration of diluted DMSO in 20% PEG300. Treatment started at P13 and continued until mice were sacrificed at P42.
The Hindlimb Clasping test, which was administered as delineated in a prior study, Guyenet et al., 2010 (A simple composite phenotype scoring system for evaluating 10 mouse models of cerebellar ataxia. J Vis Exp.), is a neurological evaluation that involves the temporary suspension of mice to observe their hindlimb reflexes, a reliable indicator of central nervous system pathology. This method involves a 10-second observation period during which the mice's hindlimb positions are closely monitored and scored. […]

[3] = tested on: Angelman syndrome (AS) mice; experiment: Fear conditioning test in AS mice; assay type: in vivo, mouse
Procedure: as §1, §2
For evaluating hippocampus-dependent memory, the protocol described in Lau and Yang, et al., 2023 for the fear conditioning test was followed. Mice were placed in an electrified and sound-attenuated chamber (Coulbourn Instruments, Allentown, PA) which was exposed to a scent (0.1% coconut) diluted in ethanol (70%) on day 1. Mice were habituated to the chamber for 3 min before undergoing three conditioning trials: a tone (5 kHz, 70 dB, 30 s) co-terminating with a foot shock (0.7 mA, 1 s). Conditioning trials were separated by a 30-second interval. Following conditioning, mice rested inside the chamber for 1.5 min before returning to their home cage. […]

[4] = tested on: UBE3A-deficient iOPCs and iOLs; experiment: Oligodendrocyte differentiation of UBE3A-deficient iOPCs into iOLs (immunoblotting of Ki67, MAG, CNPase); assay type: cell-based, human; settings: AC-186 (10 µM)
Procedure: FIG. 25C: Immunoblotting was conducted to assess the impact of UBE3A depletion on ESR-β expression during oligodendrocyte differentiation. Protein levels of ESR-β in UBE3A-deficient iOPCs and subsequently differentiated iOLs were quantified, normalized against the loading control GAPDH, and expressed relative to the iOPC+siNC control condition (set at 1.0). […] Levels of Ki67 and Myelin Associated Glycoprotein (MAG) were measured in UBE3A-deficient iOPCs and iOLs differentiated from them, normalized against GAPDH, and compared to the iOPC+siNC condition. n=4 experiments. FIG. 25E: Immunoblotting to examine the role of UBE3A for OPC self-renewal and oligodendrocyte differentiation across different developmental stages. Expression of maturation and myelination markers (MBP, MAG, PLP1, CNPase) was quantified following UBE3A depletion timed from iOPCs to pre-iOLs, normalized against TUBB1. and compared to the iOPC+siNC control condition (set at 1.0). n=4 experiments.

oligodendrocyte differentiation (MAG), FIG. 25D ([4]; UBE3A-deficient iOLs, clemastine (2.5 μM), 3 days): no impact on differentiation
Structure (SMILES): Oc1ccc(C2(c3ccccc3F)CCC(F)(F)CC2)cc1 [AC-186]
EdU staining [1]: increased EdU staining
Hindlimb clasping score ([2]; AS mice, 10 mg/kg daily IP from P13-14, vs AS vehicle, 10 mg/kg): significantly alleviated neurological symptoms; also recorded: decreased
Hindlimb clasping score ([2]; wildtype mice, 10 mg/kg daily IP): without affecting wildtype mice
Contextual fear conditioning, percentage of time spent freezing ([3]; AS mice, 10 mg/kg daily IP, vs AS vehicle, 10 mg/kg): ameliorated; also recorded: increased
cued fear conditioning ([3]; all four groups): no intergroup differences
oligodendrocyte differentiation (MAG, CNPase) with treatment at various stages, FIG. 26C ([4]; iOPC to pre-iOL to iOL stages): beneficial effects on differentiation were observed when administered during the iOPC stage
